Assay results from patent US10106501B2, “Nuclear receptor modulators” (AbbVie Inc., priority 2015, dated 2018).

Target: T1, chimeric human RORγ-Gal4 receptor (Homo sapiens, UniProt P51449)
T1 sequence (P51449 269-508 limits assumed): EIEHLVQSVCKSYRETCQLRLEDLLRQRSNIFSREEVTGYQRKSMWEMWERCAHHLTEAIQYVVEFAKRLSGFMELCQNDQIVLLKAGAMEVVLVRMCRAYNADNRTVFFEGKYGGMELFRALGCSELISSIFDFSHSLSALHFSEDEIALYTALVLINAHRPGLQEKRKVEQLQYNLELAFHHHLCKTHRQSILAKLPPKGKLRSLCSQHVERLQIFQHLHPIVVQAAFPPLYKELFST
Test: transient transactivation assay (RORγ-Gal4 luciferase reporter)
Format: cell-based
Settings: Cos-7 cells transfected with RORγ-Gal4 and 5Gal4 pGL3 TK Luc reporter; overnight incubation; T0901317 at 10^-5 M as reference; read-out: IC50

SMILES	IC50 [nM]
Cc1cn(C(=O)c2c(Cl)ncc(C(=O)N3CCC(CC(=O)O)CC3)c2Cl)c2c(C)cc(C(F)(F)F)cc12 [EQ, 2-(1-(4,6-dichloro-5-(3,7-dimethyl-5-(trifluoromethyl)-1H-indole-1-carbonyl)nicotinoyl)piperidin-4-yl)acetic acid]	< 100
Cc1cc(C#N)cc2c1cc(Cc1c(Cl)ccc(C(=O)N3CCN(C)C(C)C3)c1Cl)n2C (centres unmarked) [AA-10]	100 to 500
Cc1cc(C(F)(F)F)cc2c1cc(Cc1c(Cl)ccc(C(=O)N3CCC(C(=O)O)CC3)c1Cl)n2C [B, 1-(2,4-dichloro-3-((1,4-dimethyl-6-(trifluoromethyl)-1H-indol-2-yl)methyl)benzoyl)piperidine-4-carboxylic acid]	< 100
Cn1c(Cc2c(Cl)ncc(C(=O)N3CCC(CC(=O)O)CC3)c2Cl)cc2c(F)cc(C3CC3)cc21 [Example GN, 2-[1-[4,6-dichloro-5-[(6-cyclopropyl-4-fluoro-1-methyl-1H-indol-2-yl)methyl]pyridine-3-carbonyl]-4-piperidyl]acetic acid]	< 100
Cc1cc(C(F)(F)F)cc2c1cc(C(=O)c1c(Cl)ccc(C(=O)N3CC[C@H](C(=O)O)[C@H](C)C3)c1Cl)n2C [AQ-4]	< 100
Cc1cc(C#N)cc2c1cc(Cc1c(Cl)ccc(C(=O)NC3CCC(O)CC3)c1Cl)n2C (centres unmarked) [AA-22]	100 to 500
Cn1c(Cc2c(C3CC3)ccc(C(=O)N3CCC(CC(=O)O)CC3)c2Cl)cc2ccc(OC(F)(F)F)cc21 [Example FL, 2-(1-(2-chloro-4-cyclopropyl-3-((1-methyl-6-(trifluoromethoxy)-1H-indol-2-yl)methyl)benzoyl)piperidin-4-yl)acetic acid]	< 100
Cc1cc(C(F)(F)F)nn2c(C)c(Cc3c(Cl)ccc(C(=O)N4CCC(C5COC5)CC4)c3Cl)nc12 [CZ-2]	< 100
Cc1cn(Cc2c(Cl)ccc(C(=O)N3CC[C@@H](C(=O)O)[C@@H](C)C3)c2Cl)c2c(C)cc(OC(F)(F)F)cc12 [EG-2]	< 100
Cc1c(Br)ccc2c1nc(Cc1c(Cl)ccc(C(=O)N3CCOCC3)c1Cl)n2C [Example CB, (3-((5-bromo-1,4-dimethyl-1H-benzo[d]imidazol-2-yl)methyl)-2,4-dichlorophenyl)(morpholino)methanone]	100 to 500
Cc1cc(C#N)cc2c1cc(C(=O)c1c(Cl)ccc(C(=O)N3CCC(O)CC3)c1Cl)n2C [Example AN, 2-(2,6-dichloro-3-(4-hydroxypiperidine-1-carbonyl)benzoyl)-1,4-dimethyl-1H-indole-6-carbonitrile]	< 100
Cc1cc(OC(F)(F)F)cc2c1c(Cc1c(Cl)ccc(C(=O)N3CCC(CC(=O)O)CC3)c1Cl)cn2C [DU1-1]	< 100
Cc1cc(C#N)cc2c1cc(C(=O)c1c(Cl)ccc(C(=O)N3CCOCC3)c1Cl)n2C [Example AD, 2-(2,6-dichloro-3-(morpholine-4-carbonyl)benzoyl)-1,4-dimethyl-1H-indole-6-carbonitrile]	100 to 500
CNC(=O)c1cc(C)c2cc(Cc3c(Cl)ccc(C(=O)N4CCOCC4)c3Cl)n(C)c2c1 [Example FP, 2-[[2,6-dichloro-3-(morpholine-4-carbonyl)phenyl]methyl]-N,1,4-trimethyl-indole-6-carboxamide]	< 100
Cc1cc(C(F)(F)F)cc2c1nc(C(=O)c1c(Cl)ccc(C(=O)N3CCOCC3)c1Cl)n2C [Example BS, (2,4-dichloro-3-(1,4-dimethyl-6-(trifluoromethyl)-1H-benzo[d]imidazole-2-carbonyl)phenyl)(morpholino)methanone]	100 to 500
Cc1cc(C(F)(F)F)cc2c1cc(Cc1c(Cl)ccc(C(=O)N3CCC(CC(=O)O)C3)c1Cl)n2C (centres unmarked) [Example B-6]	< 100
Cc1cc(OC(F)(F)F)cc2ccn(C(=O)c3c(Cl)ccc(C(=O)N4CC5(CC(CC(=O)O)C5)C4)c3Cl)c12 [EL-1]	< 100
C[C@@H]1CN(C(=O)c2ccc(Cl)c(Cc3cc4c(F)cc(C(F)(F)F)cc4n3C)c2Cl)CC[C@@H]1C(=O)O [FE-3]	< 100
Cc1cc(C#N)cc2c1cc(Cc1c(Cl)ccc(C(=O)N3CCC(C(C)(C)CO)CC3)c1Cl)n2C [AA-8]	< 100
Cc1cc(OC(F)(F)F)cc2c1cc(Cc1c(Cl)ccc(C(=O)N3CC[C@@H](C(=O)O)[C@@H](C)C3)c1Cl)n2C [DP-3, (3R,4R)-1-(2,4-dichloro-3-((1,4-dimethyl-6-(trifluoromethoxy)-1H-indol-2-yl)methyl)benzoyl)-3-methylpiperidine-4-carboxylic acid]	< 100
Cc1cc(C#N)cn2c(C)c(Cc3c(Cl)ccc(C(=O)N4CCC(C5COC5)CC4)c3Cl)nc12 [CV-5]	100 to 500
Cc1cc(C(F)(F)F)cc2c1cc(Cc1c(Cl)ccc(C(=O)N3CCC(S(C)(=O)=O)CC3)c1Cl)n2C [Example A1-11]	< 100
Cc1cc(OC(F)(F)F)cc2ccn(Cc3c(Cl)ccc(C(=O)N4CCC(CCC(=O)O)CC4)c3Cl)c12 [EJ-2]	< 100
Cc1cc(C(F)(F)F)cc2c1nc(Cc1c(Cl)ccc(CN3CCN(CC(F)(F)F)CC3)c1Cl)n2C [BW-15]	100 to 500
Cc1cc(C(F)(F)F)cc2c1nc(Cc1c(Cl)ccc(CN3CCC(N(C)C)CC3)c1Cl)n2C [BW-16]	1000 to 10000
Cc1cc(C(F)(F)F)cc2c1c(Cc1c(Cl)ccc(C(=O)N3CCC(C(=O)O)CC3)c1Cl)cn2C [Example FQ, 1-(2,4-dichloro-3-((1,4-dimethyl-6-(trifluoromethyl)-1H-indol-3-yl)methyl)benzoyl)piperidine-4-carboxylic acid]	< 100
Cn1c(Cc2c(Cl)ccc(C(=O)N3CCOCC3)c2Cl)nc2c(C(F)(F)F)cc(Br)cc21 [CE, (3-((6-bromo-1-methyl-4-(trifluoromethyl)-1H-benzo[d]imidazol-2-yl)methyl)-2,4-dichlorophenyl)(morpholino)methanone]	100 to 500
Cc1cc(C#N)cc2c1cc(Cc1c(Cl)ccc(C(=O)N3CCC(N(C)C)C3)c1Cl)n2C (centres unmarked) [AA-14]	100 to 500
Cn1c(Cc2c(Cl)ccc(C(=O)N3CCC(CC(=O)O)CC3)c2Cl)cc2ccc(OC(F)(F)F)cc21 [Example FI, 2-(1-(2,4-dichloro-3-((1-methyl-6-(trifluoromethoxy)-1H-indol-2-yl)methyl)benzoyl)piperidin-4-yl)acetic acid]	< 100
Cn1c(Cc2c(Cl)ccc(C(=O)N3CCC(CC(=O)O)CC3)c2Cl)cc2c(F)cc(C(F)(F)F)cc21 [Example FE, 2-(1-(2,4-dichloro-3-((4-fluoro-1-methyl-6-(trifluoromethyl)-1H-indol-2-yl)methyl)benzoyl)piperidin-4-yl)acetic acid]	< 100

More lines, now with the values ahead:

IC50 [nM]	SMILES
< 100	COCCC1CCN(C(=O)c2ccc(Cl)c(Cc3nc4c(C)cc(C(F)(F)F)cn4c3C)c2Cl)CC1 [CT-7]
< 100	Cn1c(Cc2c(Cl)cnc(C(=O)N3CCC(CC(=O)O)CC3)c2Cl)cc2ccc(OC(F)(F)F)cc21 [Example GK, 2-(1-(3,5-dichloro-4-((1-methyl-6-(trifluoromethoxy)-1H-indol-2-yl)methyl)picolinoyl)piperidin-4-yl)acetic acid]
100 to 500	Cc1cc(C(F)(F)F)cc2c1cc(Cc1c(Cl)ccc(C(=O)N3CCCC(C(=O)O)C3)c1Cl)n2C (centres unmarked) [Example B-11]
< 100	Cc1cc(C(F)(F)F)nc2c1cc(C(=O)c1c(Cl)ccc(C(=O)N3CCC(O)CC3)c1Cl)n2C [Example FZ, (2,4-dichloro-3-(1,4-dimethyl-6-(trifluoromethyl)-1H-pyrrolo[2,3-b]pyridine-2-carbonyl)phenyl)(4-hydroxypiperidin-1-yl)methanone]
< 100	COc1cc(C)c2cc(Cc3c(Cl)ccc(C(=O)N4CCC(CC(=O)O)CC4)c3Cl)n(C)c2c1 [Example FD, 2-(1-(2,4-dichloro-3-((6-methoxy-1,4-dimethyl-1H-indol-2-yl)methyl)benzoyl)piperidin-4-yl)acetic acid]
< 100	O=C(O)CC1CCN(C(=O)c2ccc(Cl)c(Cn3ccc4cc(C(F)(F)F)ccc43)c2Cl)CC1 [EI-4]
100 to 500	Cn1c(Cc2c(Cl)ccc(C(=O)N3CCOCC3)c2Cl)cc2cc(C#N)ccc21 [Example AB, 2-(2,6-dichloro-3-(morpholine-4-carbonyl)benzyl)-1-methyl-1H-indole-5-carbonitrile]
< 100	Cc1cc(OC(F)F)cc2c1cc(Cc1c(Cl)ccc(C(=O)N3CCC(C(=O)O)CC3)c1Cl)n2C [FF-2]
< 100	Cc1ccc(C(=O)N2CCC(CC(=O)O)CC2)c(C)c1Cn1ccc2cc(OC(F)(F)F)cc(C)c21 [EK, 2-(1-(2,4-dimethyl-3-((7-methyl-5-(trifluoromethoxy)-1H-indol-1-yl)methyl)benzoyl)piperidin-4-yl)acetic acid]
100 to 500	Cc1cc(C(F)(F)F)cc2c1nc(Cc1c(Cl)ccc(CN3CCC(C(C)(C)O)CC3)c1Cl)n2C [BW-7]
100 to 500	COC(c1c(C)ccc(C(=O)N2CCOCC2)c1C)c1cc2c(C)cc(C(F)(F)F)cc2n1C (centres unmarked) [Example K1, (3-((1,4-dimethyl-6-(trifluoromethyl)-1H-indol-2-yl)(methoxy)methyl)-2,4-dimethylphenyl)(morpholino)methanone]
100 to 500	Cc1cc(C(F)(F)F)nc2c1cc(C(=O)c1c(Cl)ccc(C(=O)N3CC[C@@H](C(=O)O)[C@@H](C)C3)c1Cl)n2C [Example FX, (3R,4R)-1-(2,4-dichloro-3-(1,4-dimethyl-6-(trifluoromethyl)-1H-pyrrolo[2,3-b]pyridine-2-carbonyl)benzoyl)-3-methylpiperidine-4-carboxylic acid]
1000 to 10000	Cc1cc(C(N)=O)cc2c1nc(C(=O)c1c(Cl)ccc(C(=O)N3CCOCC3)c1Cl)n2C [Example BT, 2-(2,6-dichloro-3-(morpholine-4-carbonyl)benzoyl)-1,4-dimethyl-1H-benzo[d]imidazole-6-carboxamide]
1000 to 10000	Cc1cc(C(F)(F)F)cc2c1nc(Cc1c(Cl)ccc(C(=O)N3CC4(COC4)C3)c1Cl)n2C [BJ-28]
